Measured values from ChEMBL document CHEMBL1134152, “Biological activity in human neutrophils of di-tripeptides, analogues of the chemotactic fMLP” (Bioorg Med Chem Lett, 2001).

Legend:
[1] = Chemotactic index (C.I.) which is the ratio: (migration toward test attractant minus migration toward the buffer)/(migration toward the buffer).; format: functional
[2] = Release of neutrophil granule enzymes was evaluated by determining lysozyme activity modified for microplate-based assays.

| Lysozyme release [2] | Structure (SMILES) | Chemotactic index [1] |
| --- | --- | --- |
| 70% | COC(=O)[C@H](Cc1ccccc1)NC(=O)[C@H](CCCCNC(=O)N[C@@H](CCSC)C(=O)N[C@@H](CC(C)C)C(=O)N[C@@H](Cc1ccccc1)C(=O)O)NC(=O)[C@H](CCSC)NC=O | 0.7 |
| 65% | COC(=O)[C@H](Cc1ccccc1)NC(=O)[C@H](CC(=O)N[C@@H](CCSC)C(=O)N[C@@H](CC(C)C)C(=O)N[C@@H](Cc1ccccc1)C(=O)O)NC(=O)[C@H](CCSC)NC=O | 0.5 |
| 60% | COC(=O)[C@H](Cc1ccccc1)NC(=O)[C@H](CC(C)C)NC(=O)[C@H](CCSC)NC=O | 1 |
